Measurements: patent US20110263651A1, “NOVEL PIPERIDINE-BUTYRAMIDE DERIVATIVES AND THEIR USE AS MONOAMINE NEUROT[…]-UPTAKE INHIBITORS” (N[…]/S, priority 2008, published 2011)
Where a name gives a salt, the structure may show the parent alone.

How the values were obtained:
Assay type in all cases: biochemical
[1] = system: serotonine (5-HT) reuptake in synaptosomes; experiment: Inhibition of 5-HT reuptake in synaptosomes; details: 3H-5-HT, read-out: 5-HT-uptake IC50
Description: (§1) Compounds were tested for their ability to inhibit the reuptake of the monoamine neurotransmitters dopamine (DA) noradrenaline (NA) and serotonine (5-HT) in synaptosomes as described in WO 97/16451 (NeuroSearch NS).
(§2) The test values are given as IC50 (the concentration (μM) of the test substance which inhibits the specific binding of ^3H-DA, ^3H-NA, or ^3H-5-HT by 50%).

[2] = system: dopamine (DA) reuptake in synaptosomes; experiment: Inhibition of DA reuptake in synaptosomes; details: 3H-DA, read-out: DA-uptake IC50
Description: as §1, §2

[3] = system: noradrenaline (NA) reuptake in synaptosomes; experiment: Inhibition of NA reuptake in synaptosomes; details: 3H-NA, read-out: NA-uptake IC50
Description: as §1, §2

`CCN(C(=O)CCCC1CCNCC1)c1ccc(Cl)c(Cl)c1` [Compound 3.1, N-(3,4-Dichloro-phenyl)-N-ethyl-4-piperidin-4-yl-butyramide fumaric acid salt] was tested. Which IC50 [1] did it give?
The IC50 was 570 nM.

And the IC50 [2]?
Its IC50 is 12 nM.

What about the IC50 [3] of the same compound?
Its IC50 is 30 nM.

Which IC50 [1] does the source give for `CCN(C(=O)CCCC1CCN(C)CC1)c1ccc(Cl)c(Cl)c1` [Compound 4.1, N-(3,4-Dichloro-phenyl)-N-ethyl-4-(1-methyl-piperidin-4-yl)-butyramide fumaric acid salt] here?
Its IC50 is 800 nM.

And the IC50 [2]?
Its IC50 is 6.9 nM.

And the IC50 [3]?
Its IC50 is 12 nM.
